{"source": "patent US20040127402A1", "about": "“Injectible composition and method for treating degenerative animal joints” (priority 2002, published 2004)", "origin": "cited, not measured here", "key": {"[1]": {"conditions": "animal studies"}}}
{"substance": "Hyaluronic acid", "values": [{"measurement": "duration of superiority to oral medications", "setting": "osteoarthritis; in vivo, po", "value": "up to six"}, {"measurement": "duration of positive benefits", "setting": "osteoarthritis; joint lavage prior to hyaluronic acid therapy", "value": "up to one"}, {"measurement": "chondroprotective effect", "setting": "[1]", "value": "mild chondroprotective effect"}]}
